Laboratory results as given in patent US20230064324A1, “NEW USES FOR STEVIOL” (SUNTORY HOLDINGS LIMITED, priority 2019, published 2023).
Read-outs that look alike come from different tables or passages of the source.

How the values were obtained:
CHOP [1] = experiment: CHOP expression in neuronal cells under endoplasmic reticulum stress (RT-PCR); format: cell-based, Rat; conditions: pretreatment 1 h, tunicamycin 0.16 μM 24 h
Description: (§1) Neuronal cells were prepared as follows. PC12 cells were reconstituted by seeding at 2×10^6 cells/flask to a collagen IV-coated flask, and precultured for 3 days in the growth medium in a CO2 incubator.
(§2) The lysate was preserved at −80° C. until use.
(§3) The internal standard gene used was GAPDH gene.

GRP78 [2] = experiment: GRP78 expression in neuronal cells under endoplasmic reticulum stress (RT-PCR); format: cell-based, Rat; conditions: pretreatment 24 h, tunicamycin 1.0 μM 24 h
Description: as §1, §2, §3

CHOP [3] = experiment: CHOP expression in adipocytes under endoplasmic reticulum stress (RT-PCR); format: cell-based, Human; conditions: pretreatment 24 h, tunicamycin 0.65 μM 24 h
Description: (§4) Adipocytes were prepared as follows. Normal human subcutaneous preadipocytes were reconstituted in a T75 flask using a growth medium (PBM-2 medium, Cat. No. PT-8002, Lonza, supplemented with 10% FBS, 2 mM L-glutamine, 50 μg/mL gentamycin, and 37 ng/mL amphotericin-B), and precultured for 3 days in a CO2 incubator (37° C., 5% CO2; the same holds true for the description below).
as §2, §3

GRP78 [4] = experiment: GRP78 expression in adipocytes under endoplasmic reticulum stress (RT-PCR); format: cell-based, Human; conditions: pretreatment 24 h, tunicamycin 0.65 μM 24 h
Description: as §4, §2, §3

CHOP [5] = conditions: pretreatment 4 h, tunicamycin 0.65 μM 24 h
Description: (§5) Steviol was evaluated for its influence on endoplasmic reticulum stress in each type of cell by using endoplasmic reticulum stress markers CHOP and GRP78 as an index. The test cells used were neuronal cells (induced from PC12 cells), adipocytes (normal human subcutaneous preadipocytes, Cat. No. PT-5020, Lonza Group AG), hepatocytes (HepG2, Cat. No. JCRB1054, JCRB) and pancreatic cells (βTC6, ATCC® CRL-11506).
(§6) Hepatocytes were prepared as follow. HepG2 cells were seeded to a T75 flask and precultured for 1 day in a CO2 incubator using a growth medium (DMEM (high glucose, Cat. No. D5796, Sigma-Aldrich) supplemented with 10% FBS (Cat. No. 172012, Sigma-Aldrich), 1% penicillin-streptomycin (Cat. No. 09367-34, Nacalai Tesque, Inc.)).
(§7) 4PA (P21005, Sigma-Aldrich Co., LLC) was dissolved in a medium and then added at a predetermined concentration to a differentiation medium or a growth medium.
(§8) After the completion of endoplasmic reticulum stress induction treatment, the expression levels of CHOP and GRP78 were measured to evaluate the degree of endoplasmic reticulum stress. First, FasteLane lysate (RNA) was prepared for RNA extraction using FastLane Cell Probe kit (Cat. No. 216413, Qiagen N.V.). After removal of the medium, each well was washed by the addition of 125 μL of Buffer FCW and its immediate removal. Then, 50 μL of Cell processing mix was added to each well, followed by incubation at room temperature for 5 minutes to prepare FasteLane lysate. Next, the FasteLane lysate was transferred to a PCR tube and incubated at 75° C. for 5 minutes. The lysate was preserved at −80° C. until use.
(§9) Gene expression analysis was carried out by the following procedures. One Step real-time RT-PCR was performed with the composition of Table 8 using QuantiTect Probe RT-PCR Kit attached to FastLane Cell Probe kit.
(§10) RT-PCR reaction was performed under conditions of 50° C. for 30 minutes, 95° C. for 15 minutes, and (94° C. for 15 seconds and 60° C. for 60 seconds)×40 cycles. The internal standard gene used was GAPDH gene. A relative expression level was calculated by the ΔΔCt method. Significant difference among tunicamycin addition groups (vehicle group vs positive control group/steviol addition group) was tested by the Dunnett test.

GRP78 [6] = conditions: pretreatment 4 h, tunicamycin 0.65 μM 24 h
Description: as §5, §6, §7, §8, §9, §10

CHOP [7] = experiment: CHOP expression in pancreatic cells (βTC6) under endoplasmic reticulum stress (RT-PCR); format: cell-based, Mouse; conditions: pretreatment 4 h, tunicamycin 0.16 μM 24 h
Description: as §2, §3

GRP78 [8] = experiment: GRP78 expression in pancreatic cells (βTC6) under endoplasmic reticulum stress (RT-PCR); format: cell-based, Mouse; conditions: pretreatment 4 h, tunicamycin 0.16 μM 24 h
Description: as §2, §3

PC12 cells (clone HS) = experiment: Neurite elongation-promoting effect on PC12 cells (neurite length per cell, Operetta CLS); format: cell-based, Rat; conditions: positive control, 50 ng/mL NGF, 3 days, negative control=100%
Description: PC12 cells (clone HS) were precultured using a growth medium in the same manner as in Example 1. […] The cells thus cultured were subjected to cell membrane staining using Cell Membrane Stain attached to Neurite Outgrowth Staining Kit (Thermo Fisher Scientific Inc.) and nuclear staining using Hoechst 33342 (Cat. No. H3570). Specifically, the medium was replaced with 100 μL of a fixative and staining solution (prepared by adding a 1/1000 amount each of Cell Membrane Stain (1000×) and Hoechst 33342 and a 1/25 amount of a formaldehyde solution (Cat. No. 061-00416, FUJIFILM Wako Pure Chemical Corp.) to DPBS (++) (Cat. No. 14040133, Thermo Fisher Scientific Inc.)), followed by incubation for 20 minutes in a CO2 incubator (5% CO2, 37° C., humid). […] Photographing and quantitative analysis were carried out using Operetta CLS (Perkin Elmer, Inc.), and a neurite length per cell was calculated. Nine fields of view at the center of each well were photographed using a 10× objective lens. A test medium supplemented with 50 ng/mL NGF was used as a positive control, and a vehicle control composed of a differentiation medium supplemented with 0.1% DMSO (final concentration) was used as a negative control.

For “IGF-1: positive control, 100 ng/mL IGF-1 (Cat. No. SRP4121, Sigma-Aldrich)”, the “Expression level of CHOP in neuronal cells (relative to GAPDH, untreated=1)” value (CHOP [1]; IGF-1 100 ng/mL) was 5.97 and the “Expression level of GRP78 in neuronal cells (relative to GAPDH, untreated=1)” value (GRP78 [2]; IGF-1 100 ng/mL) was 19.77.

For `O=C(O)CCCc1ccccc1` [4PA, reference compound], the “Expression level of CHOP in neuronal cells (relative to GAPDH, untreated=1)” value (CHOP [1]; 4PA 0.1 mM) was 6.04, the “Expression level of CHOP in neuronal cells (relative to GAPDH, untreated=1)” value (CHOP [1]; 4PA 0.3 mM) was 5.87 and the “Expression level of GRP78 in neuronal cells (relative to GAPDH, untreated=1)” value (GRP78 [2]; 4PA 0.1 mM) was 19.72. The “Expression level of GRP78 in neuronal cells (relative to GAPDH, untreated=1)” value (GRP78 [2]; 4PA 0.3 mM) was 20.05, the “Expression level of CHOP in adipocytes (relative to GAPDH, untreated=1)” value (CHOP [3]; 4PA 0.1 mM) was 3.52 and the “Expression level of CHOP in adipocytes (relative to GAPDH, untreated=1)” value (CHOP [3]; 4PA 1 mM) was 3.22. The “Expression level of GRP78 in adipocytes (relative to GAPDH, untreated=1)” value (GRP78 [4]; 4PA 0.1 mM) was 4.78, the “Expression level of GRP78 in adipocytes (relative to GAPDH, untreated=1)” value (GRP78 [4]; 4PA 1 mM) was 4.25 and the “Expression level of CHOP in hepatocytes (relative to GAPDH, untreated=1)” value (CHOP [5]; 4PA 0.1 mM) was 3.23. For the same molecule, the “Expression level of CHOP in hepatocytes (relative to GAPDH, untreated=1)” value (CHOP [5]; 4PA 0.3 mM) was 2.79, the “Expression level of CHOP in hepatocytes (relative to GAPDH, untreated=1)” value (CHOP [5]; 4PA 1 mM) was 2.13 and the “Expression level of GRP78 in hepatocytes (relative to GAPDH, untreated=1)” value (GRP78 [6]; 4PA 0.1 mM) was 2.82. The “Expression level of GRP78 in hepatocytes (relative to GAPDH, untreated=1)” value (GRP78 [6]; 4PA 0.3 mM) was 2.49, the “Expression level of GRP78 in hepatocytes (relative to GAPDH, untreated=1)” value (GRP78 [6]; 4PA 1 mM) was 1.96 and the “Expression level of CHOP in pancreatic cells (relative to GAPDH, untreated=1)” value (CHOP [7]; 4PA 0.3 mM) was 2.53. For the same molecule, the “Expression level of CHOP in pancreatic cells (relative to GAPDH, untreated=1)” value (CHOP [7]; 4PA 1 mM) was 1.78, the “Expression level of CHOP in pancreatic cells (relative to GAPDH, untreated=1)” value (CHOP [7]; 4PA 3 mM) was 1.71 and the “Expression level of CHOP in pancreatic cells (relative to GAPDH, untreated=1)” value (CHOP [7]; 4PA 10 mM) was 2.47. The “Expression level of GRP78 in pancreatic cells (relative to GAPDH, untreated=1)” value (GRP78 [8]; 4PA 0.3 mM) was 2.33, the “Expression level of GRP78 in pancreatic cells (relative to GAPDH, untreated=1)” value (GRP78 [8]; 4PA 1 mM) was 2.37 and the “Expression level of GRP78 in pancreatic cells (relative to GAPDH, untreated=1)” value (GRP78 [8]; 4PA 3 mM) was 1.66. For the same molecule, the “Expression level of GRP78 in pancreatic cells (relative to GAPDH, untreated=1)” value (GRP78 [8]; 4PA 10 mM) was 1.22.

For “NGF: positive control, 50 ng/mL NGF (Cat. No. 13257019, Thermo Fisher Scientific), differentiation inducer”, the “Relative neurite length (%)” value (PC12 cells (clone HS)) was 269.4%.
